Like-named read-outs stand apart in the source and are kept apart here.
Assays:
[1] = target: T1, interaction between GMPPNP-bound recombinant K-Ras4B G12C mutant protein and cRAF RAS-binding domain (cRAF-RBD) (Homo sapiens, UniProt P01116, G12C); assay: Inhibitory activity on interaction between KRAS G12C and cRAF (Alpha technology); settings: Table 2-1
T1 construct: His-tag (N)
In short: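 His-tagged K-Ras4B G12C (aa 1-169), GMPPNP-loaded, preincubated with compound 1 h at 25° C in pH 7.5 Tris buffer with MgCl2, TCEP, Tween 20. cRAF-RBD (aa 50-132) and Alpha reagents then added for 1.5 h; Alpha signal normalised to DMSO (0%) and GDP-bound KRAS (100%); IC50 from dose titration.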

MIA PaCa-2 cells = assay: Growth inhibition activity on KRAS-G12C mutant cell line (CellTiter-Glo 3D); assay type: cell-based, human; settings: MIA PaCa-2, 3-day culture with compound, Table 3-1
In short: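 MIA PaCa-2 cells in RPMI1640 with 10% FBS, U-bottom wells, cultured 1 day before compound (0.2% DMSO final), then 3 days at 37 °C, 5% CO2. Viability by CellTiter-Glo 3D luminescence; growth inhibition versus untreated wells gives IC50 (nM).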

[2] = IC50, GMPPNP-bound KRAS G12C incubated with compound 25° C. 1 hour
[3] = GMPPNP-bound KRAS G12C incubated with compound 25° C. 1 hour, read-out: IC50

T1 sequence (P01116 with tags, fused parts or gaps isoform P01116-2 G12C): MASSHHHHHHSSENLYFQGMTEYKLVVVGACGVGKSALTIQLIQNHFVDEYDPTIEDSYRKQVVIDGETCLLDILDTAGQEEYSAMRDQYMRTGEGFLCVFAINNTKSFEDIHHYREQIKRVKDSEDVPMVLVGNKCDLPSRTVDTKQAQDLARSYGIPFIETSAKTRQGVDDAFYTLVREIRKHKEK

Structure (SMILES) | IC50 [1, 2] | IC50 (MIA PaCa-2 cells; Homo sapiens, MIA PaCa-2, 72 h) | IC50 [1, 3] | IC50 (MIA PaCa-2 cells)
Cc1cc2c(nc(C)n2C)c2c1-c1cccc3c(C(=O)c4cc(F)c(NC(=O)/C=C/CNCC(=O)N(C)C)c(F)c4)cn(c13)CCN2C [Example 94, (E)-N-(2,6-difluoro-4-(6,8,9,11-tetramethyl-8,11,12,13-tetrahydro-imidazo[4″,5″:5′,6′]-benzo[1′,2′:5,6][1,4]-diazocino[7,8,1-hi]indole-2-carbonyl)phenyl)-4-((2-(dimethylamino)-2-oxoethyl)amino)but-2-enamide] | 0.0716 µM | 0.073 µM | – | –
CN1CCc2cc(C(=O)c3cc(F)c(NC(=O)/C=C/CNCCO)c(F)c3)n3cccc(c23)-c2c(C(F)(F)F)cc3c(ncn3C)c21 [Example 96, (E)-N-(4-(9,12-dimethyl-7-(trifluoromethyl)-9,12,13,14-tetrahydro-imidazo[4″,5″:5′,6′]benzo-[1′,2′:2,3]azocino[4,5,6-hi]indolizine-2-carbonyl)-2,6-difluorophenyl)-4-((2-hydroxyethyl)amino)but-2-enamide] | – | 0.0145 µM | 0.0307 µM | –
CN1CCc2cc(C(=O)c3cc(F)c(NC(=O)/C=C/CN[C@@H]4CCCC[C@H]4O)c(F)c3)n3cccc(c23)-c2c(C(F)(F)F)cc3c(ncn3C)c21 [Example 100, (E)-N-(4-(9,12-dimethyl-7-(trifluoromethyl)-9,12,13,14-tetrahydro-imidazo[4″,5″:5′,6′]benzo-[1′,2′:2,3]azocino[4,5,6-hi]indolizine-2-carbonyl)-2,6-difluorophenyl)-4-(((1R,2R)-2-hydroxy-cyclohexyl)amino)but-2-enamide] | – | 0.0234 µM | 0.0345 µM | –
CN1CCc2cc(C(=O)c3cc(F)c(NC(=O)/C=C/CN[C@H]4CCCC[C@@H]4O)c(F)c3)n3cccc(c23)-c2c(C(F)(F)F)cc3c(ncn3C)c21 [Example 101] | – | 0.0265 µM | 0.0274 µM | –
CCN(CC)[C@H]1CC[C@H](NC/C=C/C(=O)Nc2c(F)cc(C(=O)c3cn4c5c(cccc35)-c3c(C(F)(F)F)cc5c(nc(C)n5C)c3N(C)CC4)cc2F)CC1 [Example 102, (E)-4-(((1r,4r)-4-(diethyl-amino)cyclohexyl)amino)-N-(2,6-difluoro-4-(8,9,11-trimethyl-6-(trifluoro-methyl)-8,11,12,13-tetra-hydroimidazo[4″,5″:5′,6′]-benzo[1′,2′:5,6][1,4]-diazocino[7,8,1-hi]indole-2-carbonyl)phenyl)but-2-enamide] | 0.0112 µM | 0.0105 µM | – | –
Cc1cc2c(nc(C)n2C)c2c1-c1cccc3c(C(=O)c4cc(F)c(NC(=O)/C=C/CNC(C)(C)C(=O)N(C)C)c(F)c4)cn(c13)CCN2C [Example 103] | 0.0992 µM | 0.303 µM | – | –
COc1cc2c(nc(C)n2C)c2c1-c1cccn3c(C(=O)c4cc(F)c(NC(=O)/C=C/CNC5CCCCC5)c(F)c4)cc(c13)CCN2C [Example 104, (E)-4-(cyclohexylamino)-N-(2,6-difluoro-4-(7-methoxy-9,10,12-trimeth-yl-9,12,13,14-tetrahydro-imidazo[4″,5″:5′,6′]benzo-[1′,2′:2,3]azocino[4,5,6-hi]indolizine-2-carbon-yl)phenyl)but-2-enamide] | – | 0.0155 µM | 0.0412 µM | –
CC(=O)CC(C)(C)NC/C=C/C(=O)Nc1c(F)cc(C(=O)c2cn3c4c(cccc24)-c2c(C)cc4c(nc(C)n4C)c2N(C)CC3)cc1F [Example 108] | 0.0542 µM | 0.332 µM | – | –
CN1CCc2cc(C(=O)c3cc(F)c(NC(=O)/C=C/CNC4(CO)CCCC4)c(F)c3)n3cccc(c23)-c2c(C(F)(F)F)cc3c(ncn3C)c21 [Example 109, (E)-N-(4-(9,12-dimethyl-7-(trifluoromethyl)-9,12,13,14-tetrahydro-imidazo[4″,5″:5′,6′]benzo-[1′,2′:2,3]azocino[4,5,6-hi]indolizine-2-carbonyl)-2,6-difluorophenyl)-4-((1-(hydroxymethyl)cyclo-pentyl)amino)but-2-enamide] | – | 0.0195 µM | 0.0248 µM | –
CO[C@H]1CC[C@H](NC/C=C/C(=O)Nc2c(F)cc(C(=O)c3cc4c5c(cccn35)-c3c(C)cc5c(ncn5C)c3N(C)CC4)cc2F)CC1 [Example 110, (E)-N-(2,6-difluoro-4-(7,9,12-trimethyl-9,12,13,14-tetrahydro-imidazo[4″,5″:5′,6′]benzo-[1′,2′:2,3]azocino[4,5,6-hi]indolizine-2-carbon-yl)phenyl)-4-(((1r,4r)-4-methoxycyclohexyl)-amino)but-2-enamide] | – | 0.0558 µM | 0.0357 µM | –
CCNC/C=C/C(=O)Nc1c(F)cc(C(=O)c2cc3c4c(cccn24)-c2c(C(F)(F)F)cc4c(ncn4C)c2N(C)CC3)cc1F [Example 111, (E)-N-(4-(9,12-dimethyl-7-(trifluoromethyl)-9,12,13,14-tetrahydro-imidazo[4″,5″:5′,6′]benzo-[1′,2′:2,3]azocino[4,5,6-hi]indolizine-2-carbonyl)-2,6-difluorophenyl)-4-(ethylamino)but-2-enamide] | – | 0.00895 µM | 0.0313 µM | –
CN1CCc2cc(C(=O)c3cc(F)c(NC(=O)/C=C/CNCC(C)(C)O)c(F)c3)n3cccc(c23)-c2c(C(F)(F)F)cc3c(ncn3C)c21 [Example 112, (E)-N-(4-(9,12-dimethyl-7-(trifluoromethyl)-9,12,13,14-tetrahydro-imidazo[4″,5″:5′,6′]benzo-[1′,2′:2,3]azocino[4,5,6-hi]indolizine-2-carbonyl)-2,6-difluorophenyl)-4-((2-hydroxy-2-methylpropyl)-amino)but-2-enamide] | – | 0.0101 µM | 0.0292 µM | –
CN1CCc2cc(C(=O)c3cc(F)c(NC(=O)/C=C/CNCC(C)(C)CO)c(F)c3)n3cccc(c23)-c2c(C(F)(F)F)cc3c(ncn3C)c21 [Example 113, (E)-N-(4-(9,12-dimethyl-7-(trifluoromethyl)-9,12,13,14-tetrahydro-imidazo[4″,5″:5′,6′]benzo-[1′,2′:2,3]azocino[4,5,6-hi]indolizine-2-carbonyl)-2,6-difluorophenyl)-4-((3-hydroxy-2,2-dimethyl-propyl)amino)but-2-enamide] | – | 0.0106 µM | 0.0296 µM | –
Cc1cc2c(nc(C)n2C)c2c1-c1cccc3c(C(=O)c4cc(F)c(NC(=O)/C=C/CN5CCC[C@H]5CO)c(F)c4)cn(c13)CCN2C [Example 114, (S,E)-N-(2,6-difluoro-4-(6,8,9,11-tetramethyl-8,11,12,13-tetrahydro-imidazo[4″,5″:5′,6′]benzo-[1′,2′:5,6][1,4]diazocino-[7,8,1-hi]indole-2-carbon-yl)phenyl)-4-(2-(hydroxy-methyl)pyrrolidin-1-yl)-but-2-enamide] | 0.0611 µM | 0.0645 µM | – | –
Cc1cc2c(ncn2C)c2c1-c1cccn3c(C(=O)c4cc(F)c(NC(=O)/C=C/CNC5(C)CC5)c(F)c4)cc(c13)CCN2C [Example 115, (E)-N-(2,6-difluoro-4-(7,9,12-trimethyl-9,12,13,14-tetrahydro-imidazo[4″,5″:5′,6′]benzo-[1′,2′:2,3]azocino[4,5,6-hi]indolizine-2-carbon-yl)phenyl)-4-((1-methyl-cyclopropyl)amino)but-2-enamide] | – | 0.0613 µM | 0.0389 µM | –
Cc1cc2c(ncn2C)c2c1-c1cccn3c(C(=O)c4cc(F)c(NC(=O)/C=C/CNC5(C)CCOCC5)c(F)c4)cc(c13)CCN2C [Example 116] | – | 0.0299 µM | 0.0266 µM | –
COCc1nc2c3c(c(C(F)(F)F)cc2n1C)-c1cccn2c(C(=O)c4cc(F)c(NC(=O)/C=C/CN[C@H]5CCOC5)c(F)c4)cc(c12)CCO3 [Example 118, (S,E)-N-(2,6-difluoro-4-(10-(methoxymethyl)-9-methyl-7-(trifluorometh-yl)-13,14-dihydro-9H-imidazo[4″,5″:5′,6′]benzo-[1′,2′:2,3]oxocino[4,5,6-hi]indolizine-2-carbonyl)-phenyl)-4-((tetrahydro-furan-3-yl)amino)but-2-enamide] | – | 0.0042 µM | 0.0126 µM | –
Cc1cc2c(nc(C)n2C)c2c1-c1cccc3c(C(=O)c4cc(F)c(NC(=O)/C=C/CNC56CCC(CC5)OC6)c(F)c4)cn(c13)CCN2C [Example 119, (E)-4-((2-oxabicyclo-[2.2.2]octan-4-yl)amino)-N-(2,6-difluoro-4-(6,8,9,11-tetramethyl-8,11,12,13-tetrahydro-imidazo[4″,5″:5′,6′]benzo-[1′,2′:5,6][1,4]diazocino-[7,8,1-hi]indole-2-carbon-yl)phenyl)but-2-enamide] | 0.0169 µM | – | – | 0.00939 µM
Cn1cnc2c3c(c(C(F)(F)F)cc21)-c1cccn2c(C(=O)c4cc(F)c(NC(=O)C=CCNC5CCOC5)c(F)c4)cc(c12)CCO3 [Example 120, (S,E)-N-(2,6-difluoro-4-(9-methyl-7-(trifluoromethyl)-13,14-dihydro-9H-imidazo[4″,5″:5′,6′]benzo[1′,2′:2,3]oxocino[4,5,6-bi]indolizine-2-carbonyl)phenyl)-4-((tetrahydrofuran-3-yl)amino)but-2-enamide] | – | 0.00652 µM | 0.00559 µM | –
COc1cc2c(nc(C)n2C)c2c1-c1cccn3c(C(=O)c4cc(F)c(NC(=O)/C=C/CNC56CCC(CC5)OC6)c(F)c4)cc(c13)CCN2C [Example 121] | – | 0.0264 µM | 0.023 µM | –
